In patent US10370343B2, “[6,6] Fused bicyclic HDAC8 inhibitors” (FORMA Therapeutics, Inc., priority 2015, dated 2019):

Tests used:
[1] = molecular target: T1, Recombinant N-terminal GST tag full-length human HDAC8 (Homo sapiens, UniProt Q9BY41); assay: HDAC8 probe binding assay, time resolved fluorescence (TRF) format; conditions: compounds grouped by IC50 range (Table 2)
T1 construct: Recombinant N-terminal GST tag full-length human HDAC8; purchased SignalChem H90-30G-1000; host or cells: baculovirus in Sf9 insect cells
T1 sequence (Q9BY41 1-377): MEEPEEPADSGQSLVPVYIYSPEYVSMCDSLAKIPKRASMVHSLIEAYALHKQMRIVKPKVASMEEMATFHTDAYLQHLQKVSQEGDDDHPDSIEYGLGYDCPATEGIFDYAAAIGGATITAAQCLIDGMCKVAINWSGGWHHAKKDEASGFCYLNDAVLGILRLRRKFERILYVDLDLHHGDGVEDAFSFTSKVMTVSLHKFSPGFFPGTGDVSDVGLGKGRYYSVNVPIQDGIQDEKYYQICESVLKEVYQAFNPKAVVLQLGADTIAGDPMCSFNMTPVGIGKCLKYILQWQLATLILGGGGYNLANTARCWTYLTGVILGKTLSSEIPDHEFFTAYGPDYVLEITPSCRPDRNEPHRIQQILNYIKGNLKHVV
Procedure, shortened: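 Probe-binding TRF assay using full-length N-GST human HDAC8 expressed in baculovirus-infected Sf9 cells, incubated 16 h at room temperature and read at 340 nm excitation, 485/535 nm emission. Percent inhibition was normalised to no-enzyme and DMSO controls. IC50 was obtained by 4-parameter logistic fit.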

[2] = molecular target: T2, Full length human recombinant HDAC8 protein (Homo sapiens, UniProt Q9BY41); assay: In vitro histone deacetylase assay: enzymatic HDAC8 electrophoretic mobility shift assay; format: biochemical; conditions: electrophoretic mobility shift assay; enzyme 1 nM; 2 μM fluorescently labeled peptide substrate RHKK(Ac)-NH2; 25° C.; 12 concentrations; read-out: HDAC8 IC50
T2 construct: Full length human recombinant HDAC8 protein was expressed in baculoviral system; made in house
T2 sequence (Q9BY41 1-377): T1 sequence (Q9BY41 1-377)

IC50 [1]	IC50 [2]	Structure (SMILES)
≤ 25 nM	< 25 nM	COc1ccc(CN2C(=O)COc3ccc(C(=O)NO)cc32)c(Cl)c1 [Compound I-242, 4-(2-chloro-4-methoxybenzyl)-N-hydroxy-3-oxo-3,4-dihydro-2H-benzo[b][1,4]oxazine-6-carboxamide]
≤ 25 nM	< 25 nM	O=C(NO)c1ccc2c(c1)N(Cc1nc3cc(F)ccc3o1)C(=O)CO2 [Compound I-217, 4-((5-fluorobenzo[d]oxazol-2-yl)methyl)-N-hydroxy-3-oxo-3,4-dihydro-2H-benzo[b][1,4]oxazine-6-carboxamide]
≤ 25 nM	< 25 nM	O=C(NO)c1ccc2c(c1)N(Cc1cc(Cl)ccc1Cl)C(=O)CO2 [Compound I-252, 4-(2,5-dichlorobenzyl)-N-hydroxy-3-oxo-3,4-dihydro-2H-benzo[b][1,4]oxazine-6-carboxamide]
25 to 100 nM	100 to 1000 nM	O=C(NO)c1ccc2c(c1)N(CC[C@@H]1CCS(=O)(=O)C1)C(=O)CO2 (stereo in doubt) [Compound I-54, 4-(2-(1,1-dioxidotetrahydrothiophen-3-yl)ethyl)-N-hydroxy-3-oxo-3,4-dihydro-2H-benzo[b][1,4]oxazine-6-carboxamide]
25 to 100 nM	25 to 100 nM	O=C(NO)c1ccc2c(c1)N(Cc1cc(F)cc(C(F)(F)F)c1)C(=O)CO2 [Compound I-276, 4-(3-fluoro-5-(trifluoromethyl)benzyl)-N-hydroxy-3-oxo-3,4-dihydro-2H-benzo[b][1,4]oxazine-6-carboxamide]
≤ 25 nM	< 25 nM	O=C(NO)c1ccc2c(c1)N(Cc1cnn(-c3ccccc3)c1)C(=O)CO2 [Compound I-223, N-hydroxy-3-oxo-4-((1-phenyl-1H-pyrazol-4-yl)methyl)-3,4-dihydro-2H-benzo[b][1,4]oxazine-6-carboxamide]
≤ 25 nM	< 25 nM	CC(c1ccc(S(C)(=O)=O)cc1)N1C(=O)COc2ccc(C(=O)NO)cc21 (centres unmarked) [Compound I-94, N-hydroxy-4-(1-(4-(methylsulfonyl)phenyl)ethyl)-3-oxo-3,4-dihydro-2H-benzo[b][1,4]oxazine-6-carboxamide]
25 to 100 nM	25 to 100 nM	O=C(NO)c1ccc2c(c1)N(Cc1cccc(C(F)(F)F)c1F)C(=O)CO2 [Compound I-265, 4-(2-fluoro-3-(trifluoromethyl)benzyl)-N-hydroxy-3-oxo-3,4-dihydro-2H-benzo[b][1,4]oxazine-6-carboxamide]
25 to 100 nM	25 to 100 nM	Cc1nc(-c2ccccc2)sc1CN1C(=O)COc2ccc(C(=O)NO)cc21 [Compound I-76, N-hydroxy-4-((4-methyl-2-phenylthiazol-5-yl)methyl)-3-oxo-3,4-dihydro-2H-benzo[b][1,4]oxazine-6-carboxamide]
25 to 100 nM	25 to 100 nM	COc1cccc(CN2C(=O)COc3ccc(C(=O)NO)cc32)c1 [Compound I-60, N-hydroxy-4-(3-methoxybenzyl)-3-oxo-3,4-dihydro-2H-benzo[b][1,4]oxazine-6-carboxamide]
≤ 25 nM	< 25 nM	CC1(C)Oc2ccc(C(=O)NO)cc2N(Cc2ccc(Cl)cc2F)C1=O [Compound I-161, 4-(4-chloro-2-fluorobenzyl)-N-hydroxy-2,2-dimethyl-3-oxo-3,4-dihydro-2H-benzo[b][1,4]oxazine-6-carboxamide]
≤ 25 nM	< 25 nM	COc1ccc(CN2C(=O)C(c3ccccc3)Oc3ccc(C(=O)NO)cc32)cc1 (centres unmarked) [Compound I-101, N-hydroxy-4-(4-methoxybenzyl)-3-oxo-2-phenyl-3,4-dihydro-2H-benzo[b][1,4]oxazine-6-carboxamide]
≤ 25 nM	< 25 nM	CS(=O)(=O)c1ccc(CN2CCS(=O)(=O)c3ccc(C(=O)NO)cc32)cc1 [Compound I-82, N-hydroxy-4-(4-(methylsulfonyl)benzyl)-3,4-dihydro-2H-benzo[b][1,4]thiazine-6-carboxamide-1,1-dioxide]
≤ 25 nM	< 25 nM	Cc1ccc(CN2C(=O)COc3ccc(C(=O)NO)cc32)cc1 [Compound I-38, N-hydroxy-4-(4-methylbenzyl)-3-oxo-3,4-dihydro-2H-benzo[b][1,4]oxazine-6-carboxamide]
≤ 25 nM	< 25 nM	O=C(NO)c1ccc2c(c1)N(Cc1cn(-c3ccccc3)nn1)C(=O)CO2 [Compound I-77, N-hydroxy-3-oxo-4-[(1-phenyl-1H-1,2,3-triazol-4-yl)methyl]-3,4-dihydro-2H-1,4-benzoxazine-6-carboxamide]
≤ 25 nM	25 to 100 nM	COc1ccc(CN2C(=O)C(Cc3ccccc3)Oc3ccc(C(=O)NO)cc32)cc1 (centres unmarked) [Compound I-102, 2-benzyl-N-hydroxy-4-(4-methoxybenzyl)-3-oxo-3,4-dihydro-2H-benzo[b][1,4]oxazine-6-carboxamide]
25 to 100 nM	25 to 100 nM	O=C(NO)c1ccc2c(c1)N(CCOCC1CC1)C(=O)CO2 [Compound I-50, 4-(2-(cyclopropylmethoxy)ethyl)-N-hydroxy-3-oxo-3,4-dihydro-2H-benzo[b][1,4]oxazine-6-carboxamide]
25 to 100 nM	100 to 1000 nM	CS(=O)(=O)c1cccc(CN2CCOc3ccc(C(=O)NO)cc32)c1 [Compound I-125, N-hydroxy-4-(3-(methylsulfonyl)benzyl)-3,4-dihydro-2H-benzo[b][1,4]oxazine-6-carboxamide]
25 to 100 nM	100 to 1000 nM	COc1ccc(CN2C(=O)COc3ccc(C(=O)NO)cc32)c(C(F)(F)F)c1 [Compound I-249, N-hydroxy-4-(4-methoxy-2-(trifluoromethyl)benzyl)-3-oxo-3,4-dihydro-2H-benzo[b][1,4]oxazine-6-carboxamide]
25 to 100 nM	100 to 1000 nM	O=C(NO)c1ccc2c(c1)N(Cc1ccc(F)cc1C(F)(F)F)C(=O)CO2 [Compound I-277, 4-(4-fluoro-2-(trifluoromethyl)benzyl)-N-hydroxy-3-oxo-3,4-dihydro-2H-benzo[b][1,4]oxazine-6-carboxamide]
≤ 25 nM	< 25 nM	COc1ccc(CN2C(=O)C(C(C)(C)C)Oc3ccc(C(=O)NO)cc32)cc1 (centres unmarked) [Compound I-103, 2-(tert-butyl)-N-hydroxy-4-(4-methoxybenzyl)-3-oxo-3,4-dihydro-2H-benzo[b][1,4]oxazine-6-carboxamide]
25 to 100 nM	25 to 100 nM	O=C(NO)c1ccc2c(c1)N(Cc1cn3ccccc3n1)C(=O)CO2 [Compound I-216, N-hydroxy-4-(imidazo[1,2-a]pyridin-2-ylmethyl)-3-oxo-3,4-dihydro-2H-benzo[b][1,4]oxazine-6-carboxamide]
≤ 25 nM	< 25 nM	COc1ccc(CN2C(=O)COc3ccc(C(=O)NO)cc32)cc1F [Compound I-245, 4-(3-fluoro-4-methoxybenzyl)-N-hydroxy-3-oxo-3,4-dihydro-2H-benzo[b][1,4]oxazine-6-carboxamide]
25 to 100 nM	100 to 1000 nM	O=C(NO)c1ccc2c(c1)N(Cc1ccccc1)CCO2 [Compound I-116, 4-benzyl-N-hydroxy-3,4-dihydro-2H-benzo[b][1,4]oxazine-6-carboxamide]
≤ 25 nM	< 25 nM	O=C(NO)c1ccc2c(c1)N(Cc1ccc(-c3ncco3)cc1)C(=O)CO2 [Compound I-221, N-hydroxy-4-(4-(oxazol-2-yl)benzyl)-3-oxo-3,4-dihydro-2H-benzo[b][1,4]oxazine-6-carboxamide]
